Laboratory results as given in patent publication US9493435B2, “IRE-1α inhibitors” (MannKing Corporation, priority 2009, dated 2016).

Experiments:
[1] = target: human IRE-1α (GST-IRE-1α) (Homo sapiens (Human), UniProt O75460); experiment: IRE-1α assay (cleavage of mini-XBP-1 mRNA stem-loop substrate); assay type: biochemical; conditions: average IC50 for inhibition of IRE-1α in vitro
Method: A fusion protein comprising glutathione S transferase (GST) and human IRE-1α (GST-IRE-1α) obtained from a 500 ml baculovirus-infected insect cell culture can be used to measure IRE-1α activity in vitro. Five μl of a reaction mixture comprising 1× reaction buffer (5× reaction buffer is 100 mM Hepes pH 7.5, 250 mM KOAc, 2.5 mM MgCl2), 3 mM DTT, and 0.4% polyethylene glycol water is added to each well of 384 well plates. Twenty-five nanoliters of a 1 mM test compound solution are added to test wells. […] Negative control wells contain only reaction mixture and test compound. After spinning the plates at 1200 rpm for 30 seconds, 3 μl of an IRE-1α human mini-XBP-1 mRNA stem-loop substrate [NT] ID NO:1), labeled with the fluorescent dye Cy5 at the [NT] end, are added to each well of a control plate. The plates are again spun at 1200 rpm for 30 seconds. […] The plates are covered with lids and incubated for one hour at 30° C. The plates are then transferred to an […] microplate reader. Data is analyzed using data analysis software, and the percent activity of IRE-1α is calculated.

[2] = system: IRE-1α-mediated XBP-1 splicing in human myeloma MM.1s cells; experiment: Cellular XBP-1 splicing assay in myeloma cells (RT-PCR); assay type: cell-based; conditions: average EC50, endogenous XBP-1 splicing in myeloma cells, DTT stress
Method: After an additional 45 minutes (2 hours total) with compound and DTT, the cells are harvested with TRIZOL® (a mono-phasic solution of phenol and guanidine isothiocyanate), and total RNA is prepared as directed by the manufacturer (Invitrogen). Human XBP-1 is amplified by RT-PCR with the following primers, which flank the 26 base unconventional intron excised by IRE-1α:
RT-PCR of unstressed (U) cells then generates the upper band. When cells are stressed (S) with the endoplasmic reticulum (ER) stressing agent DTT, IRE-1α is activated due to accumulating unfolded protein and the resulting RT-PCR product is 26 base pairs shorter.
Compounds which pass specificity assays are assayed for cellular EC50 using endogenous XBP-1 splicing in myeloma cells. XBP-1 is regulated through the excision of a 26 nucleotide intron from the XBP-1 mRNA by the highly specific endoribonuclease activity of IRE-1α. […] This splicing event is used to measure IRE-1α activity on XBP-1 mRNA in cells and tissues.
Briefly, compounds are incubated in the presence or absence of an ER stress agent (e.g., DTT), and the ratio of XBP-1u (unspliced) to XBP-1s (spliced) is quantified by RT-PCR.

human IRE-1α (GST-IRE-1α), sequence (O75460 19-977): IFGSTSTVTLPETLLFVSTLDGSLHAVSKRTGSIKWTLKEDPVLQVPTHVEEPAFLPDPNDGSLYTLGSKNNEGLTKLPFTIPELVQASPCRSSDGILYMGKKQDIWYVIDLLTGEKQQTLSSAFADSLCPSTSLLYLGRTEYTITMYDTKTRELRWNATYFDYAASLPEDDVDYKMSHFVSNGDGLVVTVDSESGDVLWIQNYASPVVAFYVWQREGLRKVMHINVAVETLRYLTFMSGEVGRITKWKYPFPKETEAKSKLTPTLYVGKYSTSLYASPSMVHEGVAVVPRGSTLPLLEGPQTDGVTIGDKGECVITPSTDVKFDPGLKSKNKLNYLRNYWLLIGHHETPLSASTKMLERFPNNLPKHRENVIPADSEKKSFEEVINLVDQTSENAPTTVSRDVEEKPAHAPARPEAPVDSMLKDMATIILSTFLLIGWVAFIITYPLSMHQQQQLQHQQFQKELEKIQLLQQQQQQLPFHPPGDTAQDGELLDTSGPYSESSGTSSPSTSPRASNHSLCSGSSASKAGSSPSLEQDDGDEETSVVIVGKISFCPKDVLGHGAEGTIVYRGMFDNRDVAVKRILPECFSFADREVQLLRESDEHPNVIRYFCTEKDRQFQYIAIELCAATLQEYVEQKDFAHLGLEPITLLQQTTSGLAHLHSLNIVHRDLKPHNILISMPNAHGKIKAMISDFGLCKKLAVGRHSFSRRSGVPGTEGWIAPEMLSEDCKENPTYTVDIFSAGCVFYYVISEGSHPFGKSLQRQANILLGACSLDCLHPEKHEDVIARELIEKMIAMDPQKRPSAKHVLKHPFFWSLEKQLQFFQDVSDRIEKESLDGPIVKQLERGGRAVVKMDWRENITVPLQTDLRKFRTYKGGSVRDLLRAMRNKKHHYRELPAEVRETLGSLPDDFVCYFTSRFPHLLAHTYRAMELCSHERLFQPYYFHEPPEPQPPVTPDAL

SMILES | IC50 [1] | EC50 ([2]; Homo sapiens, MM1.S) | EC50 [2]
CN(Cc1ccccc1)C(=O)C1CCN(c2ccc3ccc(O)c(C=O)c3c2)C1 (stereo not drawn) [Compound 134] | > 1 µM | > 10 µM | 
CN1CCN(c2nc(-c3ccc4c(C=O)c(O)ccc4c3)cs2)CC1 [Compound 120] | < 1 µM | 10 µM | 
O=Cc1c(O)ccc2ccc(N3CCOCC3)cc12 [Compound 88] | > 1 µM | < 10 µM | 
Cc1nc(-c2ccc3c(C=O)c(O)ccc3c2)sc1C(=O)NCCN1CCOCC1 [Compound 142] | < 0.1 µM | < 10 µM | 
O=Cc1c(O)ccc2cc(-c3ccc(C(=O)NC4CCCNC4)s3)ccc12 (stereo not drawn) [Compound 47] | < 0.1 µM | < 10 µM | 
COc1ccc(CNC(=O)c2cccc(-c3ccc4c(C=O)c(O)ccc4c3)n2)cc1 [Compound 17] | < 1 µM | > 10 µM | 
CN(C)C(=O)C1CCN(c2ccc3ccc(O)c(C=O)c3c2)C1 (stereo not drawn) [Compound 132] | > 1 µM | > 10 µM | 
CN1CCN(C(=O)C2CCN(c3ccc4c(C=O)c(O)ccc4c3)C2)CC1 (stereo not drawn) [Compound 112] | < 1 µM | < 10 µM | 
O=Cc1c(O)ccc2cc(-c3ccc(C(=O)NCCN4CCOCC4)o3)ccc12 [Compound 71] | < 0.1 µM | < 10 µM | 
CN1CCCCC1CNC(=O)c1ccc(-c2ccc3c(C=O)c(O)ccc3c2)s1 (stereo not drawn) [Compound 62] | < 0.1 µM | < 10 µM | 
O=Cc1c(O)ccc2cc(N3CCC(N4CCCCC4)C3)ccc12 (stereo not drawn) [Compound 117] | < 1 µM | < 10 µM | 
O=Cc1c(O)ccc2cc(N3CCOCC3)ccc12 [Compound 54] | > 1 µM | > 10 µM | 
CN1CCN(C(=O)c2csc(-c3ccc4c(C=O)c(O)ccc4c3)n2)CC1 [Compound 60] | < 0.1 µM | < 10 µM | 
O=Cc1c(O)ccc2cc(-c3ccc(C(=O)NC4CCCNC4)o3)ccc12 (stereo not drawn) [Compound 171] | < 0.1 µM | < 10 µM | 
CN1CCN(C(=O)c2ccc(-c3ccc4c(C=O)c(O)ccc4c3)cn2)CC1 [Compound 50] | < 1 µM | < 10 µM | 
O=Cc1c(O)ccc2cc(-c3ccc(C(=O)N4CCCC4)cc3)ccc12 [Compound 3] | < 1 µM | < 10 µM | 
O=Cc1c(O)ccc2cc(-c3ccc(C(=O)N4CCCC4)nc3)ccc12 [Compound 124] | < 1 µM | < 10 µM | 
CC(=O)NC1CCN(c2ccc3c(C=O)c(O)ccc3c2)C1 (stereo not drawn) [Compound 154] | < 1 µM | < 10 µM | 
O=Cc1c(O)ccc2cc(N3CCCC(NCc4ccccc4)C3)ccc12 (stereo not drawn) [Compound 98] | 1 µM | < 10 µM | 
O=Cc1c(O)ccc2cc(N3CCC(NCc4ccccc4)C3)ccc12 (stereo not drawn) [Compound 153] | > 1 µM | > 10 µM | 
CNC(=O)C1CCN(c2ccc3ccc(O)c(C=O)c3c2)C1 (stereo not drawn) [Compound 131] | > 1 µM | > 10 µM | 
CS(=O)(=O)NC1CCN(c2ccc3c(C=O)c(O)ccc3c2)CC1 [Compound 93] | > 1 µM | < 10 µM | 
O=Cc1c(O)ccc2cc(N3CCCC3)ccc12 [Compound 59] | > 1 µM | > 10 µM | 
CN(C)C(=O)c1ccc(Cl)c(-c2ccc3c(C=O)c(O)ccc3c2)c1 [Compound 26] | > 1 µM | > 10 µM | 
CN1CCC(NC(=O)c2ccc(-c3ccc4c(C=O)c(O)ccc4c3)s2)CC1 [Compound 38] | < 1 µM | < 10 µM | 
O=Cc1c(O)ccc2ccc(N3CCC(C(=O)N4CCOCC4)C3)cc12 (stereo not drawn) [Compound 149] | > 1 µM | > 10 µM | 

SMILES | IC50 [1] | EC50 ([2]; Homo sapiens, MM1.S) | EC50 [2]
CN1CCN(c2ccc3ccc(O)c(C=O)c3c2)CC1 [Compound 87] | > 1 µM | > 10 µM | 
CN(C)C1CCN(c2ccc3c(C=O)c(O)ccc3c2)CC1 [Compound 85] | < 0.01 µM | < 10 µM | 
CCN(CC)C(=O)c1cccc(-c2ccc3c(C=O)c(O)ccc3c2)n1 [Compound 7] | < 1 µM | 10 µM | 
CCOC(=O)CCc1ccc2c(C=O)c(O)ccc2c1 [Compound 40] | > 1 µM | > 10 µM | 
O=Cc1c(O)ccc2cc(N3CCC(C(=O)N4CCOCC4)C3)ccc12 (stereo not drawn) [Compound 111, 2-Hydroxy-6-[3-(morpholine-4-carbonyl)-pyrrolidin-1-yl]-naphthalene-1-carbaldehyde] | < 1 µM | > 10 µM | 
CN1CCN(C(=O)COc2ccc3c(C=O)c(O)ccc3c2)CC1 [Compound 165] | > 1 µM |  | > 10 µM
CN1CCN(C(=O)C2CCN(c3ccc4ccc(O)c(C=O)c4c3)C2)CC1 (stereo not drawn) [Compound 150] | > 1 µM | > 10 µM | 
CN1CCN(C2CCN(c3ccc4ccc(O)c(C=O)c4c3)C2)CC1 (stereo not drawn) [Compound 138] | > 1 µM | > 10 µM | 
O=Cc1c(O)ccc2cc(-c3ccc(C(=O)N4CCOCC4)cn3)ccc12 [Compound 101] | < 1 µM | > 10 µM | 
O=Cc1c(O)ccc2cc(N3CCC(C(=O)N4CCCCC4)C3)ccc12 (stereo not drawn) [Compound 129] | > 1 µM | > 10 µM | 
O=Cc1c(O)ccc2cc(CCC(=O)N3CCOCC3)ccc12 [Compound 52] | < 1 µM | < 10 µM | 
O=Cc1c(O)ccc2cc(-c3ccc(C(=O)NCC4CCCCN4)s3)ccc12 (stereo not drawn) [Compound 41] | < 0.1 µM | < 10 µM | 
O=Cc1c(O)ccc2cc(-c3ccc(C(=O)NCC4CCNCC4)s3)ccc12 [Compound 43] | < 0.1 µM | < 10 µM | 
COCCNC(=O)c1ccc(-c2ccc3c(C=O)c(O)ccc3c2)cc1 [Compound 10] | < 1 µM | < 10 µM | 
O=Cc1c(O)ccc2cc(-c3cccc(C(=O)N4CCCC4)n3)ccc12 [Compound 14] | < 0.1 µM | < 10 µM | 
CN1CCC(NC(=O)c2ccc(-c3ccc4c(C=O)c(O)ccc4c3)s2)C1 (stereo not drawn) [Compound 79] | < 0.1 µM | < 10 µM | 
CN(C)C1CCN(c2ccc3ccc(O)c(C=O)c3c2)C1 (stereo not drawn) [Compound 135] | > 1 µM | > 10 µM | 
O=Cc1c(O)ccc2cc(-c3ccc(C(=O)NCC4CCCNC4)s3)ccc12 (stereo not drawn) [Compound 42] | < 0.1 µM | < 10 µM | 
CN(C)C(=O)CCc1ccc2c(C=O)c(O)ccc2c1 [Compound 51] | < 1 µM | < 10 µM | 
CN1CCN(C2CCN(c3ccc4c(C=O)c(O)ccc4c3)CC2)CC1 [Compound 86] | < 0.01 µM | < 10 µM | 
CNC(=O)C1CCN(c2ccc3c(C=O)c(O)ccc3c2)C1 (stereo not drawn) [Compound 127] | < 1 µM | > 10 µM | 
CNC(=O)c1ccc(-c2ccc3c(C=O)c(O)ccc3c2)cc1 [Compound 9] | > 1 µM | > 10 µM | 
CN(Cc1ccncc1)C(=O)C1CCN(c2ccc3c(C=O)c(O)ccc3c2)C1 (stereo not drawn) [Compound 158] | < 1 µM | > 10 µM | 
COCCNCCNC(=O)c1ccc(-c2ccc3c(C=O)c(O)ccc3c2)cn1 [Compound 125] | < 0.1 µM | < 10 µM | 
CN(C)C(=O)c1ccc(-c2ccc3c(C=O)c(O)ccc3c2)c(Cl)c1 [Compound 28] | > 1 µM | > 10 µM | 
